From the CheMixHub viscosity set

Experiment: xn = mol fraction of the nth substance listed

ClC(Cl)(Cl)Cl + CCCCO
Settings	viscosity [mPa·s]
298.15 K, 101 kPa, x2 = 0.0326	0.903
298.15 K, 101 kPa, x2 = 0.0846	0.92
298.15 K, 101 kPa, x2 = 0.1	0.918
298.15 K, 101 kPa, x2 = 0.19	0.975
298.15 K, 101 kPa, x2 = 0.2668	1.058
298.15 K, 101 kPa, x2 = 0.27	1.046
298.15 K, 101 kPa, x2 = 0.34	1.135
298.15 K, 101 kPa, x2 = 0.425	1.293
298.15 K, 101 kPa, x2 = 0.4916	1.42
298.15 K, 101 kPa, x2 = 0.58	1.56
298.15 K, 101 kPa, x2 = 0.629	1.778
298.15 K, 101 kPa, x2 = 0.67	1.794
298.15 K, 101 kPa, x2 = 0.6978	1.88
298.15 K, 101 kPa, x2 = 0.76	1.979
298.15 K, 101 kPa, x2 = 0.7789	2.078
298.15 K, 101 kPa, x2 = 0.836	2.291
298.15 K, 101 kPa, x2 = 0.89	2.325
298.15 K, 101.32 kPa, x2 = 0.09917	0.919
298.15 K, 101.32 kPa, x2 = 0.1956	0.972
298.15 K, 101.32 kPa, x2 = 0.3011	1.074
298.15 K, 101.32 kPa, x2 = 0.3746	1.163
298.15 K, 101.32 kPa, x2 = 0.5434	1.464
298.15 K, 101.32 kPa, x2 = 0.5847	1.552
298.15 K, 101.32 kPa, x2 = 0.687	1.806
298.15 K, 101.32 kPa, x2 = 0.7888	2.065
298.15 K, 101.32 kPa, x2 = 0.8923	2.329
303.15 K, 101 kPa, x2 = 0.0559	0.8424
303.15 K, 101 kPa, x2 = 0.057	0.8423
303.15 K, 101 kPa, x2 = 0.1084	0.8543
303.15 K, 101 kPa, x2 = 0.1137	0.856
303.15 K, 101 kPa, x2 = 0.1851	0.8882
303.15 K, 101 kPa, x2 = 0.1887	0.8907
303.15 K, 101 kPa, x2 = 0.2871	0.9679
303.15 K, 101 kPa, x2 = 0.3823	1.076
303.15 K, 101 kPa, x2 = 0.4772	1.215
303.15 K, 101 kPa, x2 = 0.5086	1.268
303.15 K, 101 kPa, x2 = 0.6468	1.527
303.15 K, 101 kPa, x2 = 0.6792	1.593
303.15 K, 101 kPa, x2 = 0.7591	1.764
303.15 K, 101 kPa, x2 = 0.8416	1.943
303.15 K, 101 kPa, x2 = 0.893	2.054
303.15 K, 101 kPa, x2 = 0.9516	2.176
303.15 K, 101 kPa, x2 = 0.9563	2.186
303.15 K, 101.3 kPa, x1 = 0.7915	1.005
308.15 K, 101 kPa, x2 = 0.0846	0.801
308.15 K, 101 kPa, x2 = 0.2668	0.902
308.15 K, 101 kPa, x2 = 0.629	1.372
308.15 K, 101 kPa, x2 = 0.6978	1.487
308.15 K, 101 kPa, x2 = 0.7789	1.647
308.15 K, 101 kPa, x2 = 0.836	1.76
318.15 K, 101 kPa, x2 = 0.0326	0.684
318.15 K, 101 kPa, x2 = 0.0846	0.692
318.15 K, 101 kPa, x2 = 0.2668	0.773
318.15 K, 101 kPa, x2 = 0.425	0.883
318.15 K, 101 kPa, x2 = 0.4916	0.95
318.15 K, 101 kPa, x2 = 0.629	1.116
318.15 K, 101 kPa, x2 = 0.6978	1.189
318.15 K, 101 kPa, x2 = 0.7789	1.313
318.15 K, 101 kPa, x2 = 0.836	1.416

CCCOC(C)=O + CCCCOC(C)=O
viscosity [mPa·s], 101 kPa
Settings	x1 = 0.2	x1 = 0.4	x1 = 0.6	x1 = 0.8
293.15 K	0.697	0.67	0.644	0.618
313.15 K	0.538	0.519	0.5	0.481

ClC(Cl)(Cl)Cl + CCCCOC(C)=O
101.33 kPa
Settings	viscosity [mPa·s]
303.15 K, x1 = 0.1942	0.664
303.15 K, x1 = 0.3145	0.685
303.15 K, x1 = 0.4207	0.702
303.15 K, x1 = 0.5252	0.72
303.15 K, x1 = 0.5754	0.732
303.15 K, x1 = 0.7049	0.759
303.15 K, x1 = 0.7537	0.774
303.15 K, x1 = 0.8196	0.788
303.15 K, x1 = 0.8765	0.803
303.15 K, x1 = 0.9415	0.823
313.15 K, x1 = 0.2041	0.587
313.15 K, x1 = 0.4028	0.619
313.15 K, x1 = 0.5068	0.634
313.15 K, x1 = 0.604	0.651
313.15 K, x1 = 0.8058	0.695

CCN(CC)CC + CCCCOCCO
viscosity [mPa·s], 100 kPa
Settings	298.15 K	303.15 K	308.15 K
x2 = 0.0506	0.431	0.407	0.383
x2 = 0.1002	0.51	0.474	0.447
x2 = 0.1499	0.598	0.553	0.518
x2 = 0.2	0.689	0.632	0.594
x2 = 0.3001	0.875	0.802	0.75
x2 = 0.3999	1.097	0.99	0.922
x2 = 0.5001	1.35	1.212	1.122
x2 = 0.6	1.632	1.457	1.342
x2 = 0.6996	1.946	1.714	1.576
x2 = 0.7994	2.254	1.979	1.809
x2 = 0.8995	2.578	2.264	2.058
x2 = 0.9498	2.724	2.392	2.174

ClC(Cl)(Cl)Cl + CCCCOCCO
298.15 K, 101.3 kPa
Settings	viscosity [mPa·s]
x2 = 0.0054	0.913
x2 = 0.0106	0.919
x2 = 0.0262	0.918
x2 = 0.0778	0.968
x2 = 0.1296	1.035
x2 = 0.1914	1.125
x2 = 0.2889	1.283
x2 = 0.3826	1.47
x2 = 0.4809	1.687
x2 = 0.5388	1.81
x2 = 0.5933	1.935
x2 = 0.6963	2.162
x2 = 0.7923	2.385
x2 = 0.8841	2.589
x2 = 0.9631	2.759
